Assay results: US7169932B2 (priority 2001, dated 2007)
Where “and” joins values, the source holds several entries; their conditions need not be identical. Equal values may be shown once.

Experiments:
[1] = tested on: 46I, 84V, 90M virus; test: Phenotypic susceptibility assay at Virologic, Inc.; format: cell-based, HIV-1; settings: Human immunodeficiency virus 1
Experimental: Compounds were tested in phenotypic susceptibility assays at Virologic, Inc., (See Petropoulos C. J., Parkin N. T., Limoli K. L., Lie Y. S., Wrin T., Huang W., Tian H., Smith D., Winslow G. A., Capon D J, Whitcomb J M. 2000, “A novel phenotypic drug susceptibility assay for human immunodeficiency virus type 1,” Antimicrob Agents Chemother 44(4):920–928) or using the assay described here. MT-2 cells were infected with either HIV-1 NL4–3 or HIV-1 NL4–3(184V/L90M) and incubated in the presence of serial 0.5 log dilutions of test compounds. Three days later, culture supernatants were collected and virus production, as determined by p24 ELISA, was assayed. Percent inhibition was calculated as p24 concentration in compound-treated samples as compared to infected, compound-free controls. Inhibition of viral replication is determined by measuring reduction in HIV p24 present in the culture supernatant, using a Beckman-Coulter p24 HIV-1 Ag EIA kit and following the supplied protocol. Absorbance is read on a MRX microplate reader (Dynex Technologies). The EC50 was calculated as the concentration of compound that effected a decrease in the p24 production by infected, compound-treated cells to 50% of that produced by infected, compound-free cells.

[2] = molecular target: T1, HIV-1 protease (Q7S) (Human immunodeficiency virus type 1 group M subtype B, UniProt P04585, Q495S); test: HIV-1 Protease RET Assay; format: biochemical; settings: Ave. Ki (nM), RET assay, Q7S enzyme, pH 4.8, 37 C
T1 construct: made in house
How it was run: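 Ki values came from a RET assay on refolded Q7S protease (2 nM active dimer) cleaving RE(EDANS)SQNYPIVQK(DABCYL)R at 5 μM, read at ex 340/em 490 nm. Reactions ran 12 min at 37 C in 0.1M sodium acetate pH 4.8, 1M NaCl, 5 mM DTT, 10% DMSO; curves were fit with the Morrison tight-binding equation.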

[3] = tested on: HIV-1; test: Cytopathic Effect (CPE) Inhibition Assay (XTT dye reduction); format: cell-based; settings: Human immunodeficiency virus 1, 144 h, read-out: Ave CPE EC50 (mM), protection of infected cells, six days, XTT
How it was run: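 CEM-SS or MT-2 cells infected with HIV-1 RF or NL4–3 (moi 0.025–0.819), 2×10^4 cells/well, incubated six days with half-log compound dilutions. Viability read by XTT formazan at 450 nm; EC50 is the concentration restoring 50% of uninfected-control formazan, CC50 from uninfected treated cells, therapeutic index CC50/EC50.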

SMILES | IC50 [1] | Ki [2] | EC50 [3] | melting point
C=CCNC(=O)[C@H]1N(C(=O)[C@@H](O)[C@H](Cc2ccccc2)NC(=O)c2cccc(O)c2C)CSC1(C)C [Example A14, (R)-3-((2S,3S)-2-Hydroxy-3-{[1-(3-hydroxy-2-methyl-phenyl)-methanoyl]-amino}-4-phenyl-butanoyl)-5,5-dimethyl-thiazolidine-4-carboxylic acid allylamide] | 71 nM | 0.44 nM | 52 nM | –
Cc1c(O)cccc1C(=O)N[C@@H](Cc1ccccc1)[C@H](O)C(=O)N1CSC(C)(C)[C@H]1C(=O)NCC#N [Example A30, (R)-3-((2S,3S)-2-Hydroxy-3-{[1-(3-hydroxy-2-methyl-phenyl)-methanoyl]-amino}-4-phenyl-butanoyl)-5,5-dimethyl-thiazolidine-4-carboxylic acid cyanomethylamide] | 829 nM | 1.1 nM | 507 nM | –
Cc1c(O)cccc1C(=O)N[C@@H](Cc1ccccc1)[C@H](O)C(=O)N1CSC(C)(C)[C@H]1C(=O)N[C@@H](C)c1ccccc1 [Example A20, (R)-3-((2S,3S)-2-Hydroxy-3-{[1-(3-hydroxy-2-methyl-phenyl)-methanoyl]-amino}-4-phenyl-butanoyl)-5,5-dimethyl-thiazolidine-4-carboxylic acid ((S)-1-phenyl-ethyl)-amide] | 147 nM | 0.13 nM | 37 nM | 114 to 115 °C
CCOc1cccc(CNC(=O)[C@H]2N(C(=O)[C@@H](O)[C@H](Cc3ccccc3)NC(=O)c3cccc(O)c3C)CSC2(C)C)c1 [Example A26, (R)-3-((2S,3S)-2-Hydroxy-3-{[1-(3-hydroxy-2-methyl-phenyl)-methanoyl]-amino}-4-phenyl-butanoyl)-5,5-dimethyl-thiazolidine-4-carboxylic acid 3-ethoxy-benzylamide] | 321 nM | 0.38 nM | 119 nM | 105 to 107 °C
Cc1ccccc1CNC(=O)[C@H]1N(C(=O)[C@@H](O)[C@H](Cc2ccccc2)NC(=O)N2CC[C@H](O)C2)CSC1(C)C (stereo in doubt) [Example B8, 3-(2-hydroxy-3-{[1-(3-hydroxy-pyrrolidin-yl)-methanoyl]-amino}-4-phenyl-butanoyl)-5,5-dimethyl-thiazolidine-4-carboxylic acid-2-methyl-benzylamide] | 405 nM | 0.31 nM and 1.5 nM | – | –
C#CCNC(=O)[C@H]1N(C(=O)[C@@H](O)[C@H](Cc2ccccc2)NC(=O)c2cccc(O)c2C)CSC1(C)C [Example A17, 3-(2-Hydroxy-3-{[1-(3-hydroxy-2-methyl-phenyl)-methanoyl]-amino}-4-phenyl-butanoyl)-5,5-dimethyl-thiazolidine-4-carboxylic acid prop-2-ynylamide] | 102 nM | < 0.1 nM | 45 nM | –
Cc1nc(C)c(C(=O)N[C@@H](Cc2ccccc2)[C@H](O)C(=O)N2CSC(C)(C)[C@H]2C(=O)NCc2ccccc2C)s1 [Example B11, 2,4-Dimethyl-thiazole-5-carboxylic acid {1-benzyl-3-[5,5-dimethyl-4-(2-methyl-benzylcarbamoyl)-thiazolidin-3-yl]-2-hydroxy-3-oxo-propyl}-amide] | 1720 nM | 1.2 nM | 1180 nM | –
